Results published in PubChem BioAssay (NCI).
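Interpolation was linear, between the two tested concentrations surrounding the appropriate level; five concentrations were tested over 48 hours in 96-well plates. The concentration for full growth arrest is given as TGI.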

How the values were obtained:
Assay in all cases: DTP human tumour cell line panel, 48 h
SN12C renal = system: SN12C renal
SK-OV-3 ovarian = system: SK-OV-3 ovarian
HOP-62 NSCLC = system: HOP-62 NSCLC
PC-3 prostate = system: PC-3 prostate
SK-MEL-28 melanoma = system: SK-MEL-28 melanoma
DU-145 prostate = system: DU-145 prostate
RPMI-8226 leukemia = system: RPMI-8226 leukemia
TK-10 renal = system: TK-10 renal
OVCAR-3 ovarian = system: OVCAR-3 ovarian
RXF 393 renal = system: RXF 393 renal
MCF7 breast = system: MCF7 breast
MDA-N = system: MDA-N
NCI-H460 lung = system: NCI-H460 lung
T-47D breast = system: T-47D breast
NCI-H522 lung = system: NCI-H522 lung
A498 renal = system: A498 renal
SK-MEL-2 melanoma = system: SK-MEL-2 melanoma
SW-620 colon = system: SW-620 colon
UACC-257 melanoma = system: UACC-257 melanoma

Structure (SMILES)	TGI (SN12C renal) [µM]	TGI (SK-OV-3 ovarian) [µM]	TGI (HOP-62 NSCLC) [µM]	TGI (PC-3 prostate) [µM]	TGI (SK-MEL-28 melanoma) [µM]	TGI (DU-145 prostate) [µM]	TGI (RPMI-8226 leukemia) [µM]	TGI (TK-10 renal) [µM]	TGI (OVCAR-3 ovarian) [µM]	TGI (RXF 393 renal) [µM]	TGI (MCF7 breast) [µM]	TGI (MDA-N) [µM]	TGI (NCI-H460 lung) [µM]	TGI (T-47D breast) [µM]	TGI (NCI-H522 lung) [µM]	TGI (A498 renal) [µM]	TGI (SK-MEL-2 melanoma) [µM]	TGI (SW-620 colon) [µM]	TGI (UACC-257 melanoma) [µM]
COc1cc(/C=C/C(=N\NC(N)=S)c2sc(NNC(C)=O)nc2C)ccc1O	> 100	> 100	> 100	> 100	> 100	> 100	> 100	> 100	> 100	> 100	> 100	> 100	> 100	> 100	> 100	> 100	> 100	> 100	> 100
CN(C)S(=O)(=O)c1nc(Cl)c2[nH]cnc2n1	> 100	> 100	> 100	> 100	> 100	> 100	> 100	> 100	> 100	> 100	> 100	> 100		> 100	> 100	> 100	> 100	> 100	> 100
CCC(Nc1ncnc2nc[nH]c12)C(=O)O (stereo unspecified)	> 100	> 100	> 100	> 100	> 100	> 100	> 100	> 100	> 100	> 100	> 100	> 100	> 100	> 100	> 100	> 100	> 100	> 100	> 100
Cn1cc2c3ccccc3nc-2c2ccccc21	4.89	9.3	4.16	5.78	6.43	5.76	3.94	20.6	6.88		10	5.95	4.34	5.87	3.18	3.27	3.52	3.89	5.85
C(=C/c1nnnn1-c1ccccc1)/Nc1ccccc1	> 100	> 100	81.6	> 100	> 100	> 100	> 100	77.5	96	> 100	64.8	70.4	> 100	> 100	81.8	> 100	20.6	> 100	> 100
CCOC(=O)NN(C(=O)OCC)C(C(=O)c1ccccc1)N(NC(=O)OCC)C(=O)OCC	> 100	> 100	> 100	> 100	> 100	> 100	> 100	> 100	> 100	> 100	> 100	> 100	> 100	> 100	> 100	> 100		> 100	> 100
COc1ccc(/C=C/C(=O)c2ccc(Br)cc2)cc1	> 100	> 100	> 100	> 100	> 100	> 100	> 100	> 100			> 100	> 100	> 100	> 100		> 100	> 100	> 100	
CN(C)CC1CCC/C(=C\c2ccc(OC(=O)/C=C/c3ccc(Cl)cc3)cc2)C1=O (stereo unspecified)	12.8	50	14.8	11.7	14.7	25.5	1.8	4.73	12.4	4.08	4.95	18.6	18.1	4.64	1.91	16.3	25.1	6.44	32.6
C=CCOC(=O)Cn1ccc(=O)[nH]c1=O	> 100	> 100	> 100	> 100	> 100	> 100	> 100	> 100			> 100	> 100	> 100	> 100		> 100	> 100	> 100	> 100
CN1C(=O)C23CCCC2CC1(c1ccccc1)S3 (stereo unspecified)	> 100	> 100	> 100	> 100	> 100	> 100	> 100	> 100	> 100	> 100	> 100	> 100		> 100	> 100	> 100	> 100	> 100	80.6
CCOS(=O)(=O)c1ccc(-c2c3nc(c(-c4ccc(S(=O)(=O)OCC)cc4)c4ccc([nH]4)c(-c4ccc(S(=O)(=O)OCC)cc4)c4nc(c(-c5ccc(S(=O)(=O)OCC)cc5)c5ccc2[nH]5)C=C4)C=C3)cc1	> 31.6	> 31.6		> 31.6		> 31.6	> 31.6	> 31.6		> 31.6	> 31.6	> 31.6	> 31.6	> 31.6	> 31.6	> 31.6	> 31.6	> 31.6	> 31.6
NC1=Nc2ccccc2Sc2cccc(F)c21	> 100	> 100	> 100	> 100	> 100	> 100	> 100	> 100	> 100	> 100	> 100	> 100	> 100	> 100	> 100	> 100	> 100	> 100	> 100
CSc1ncc2c(n1)-c1ccccc1OC2	> 100	> 100		> 100		> 100	> 100	> 100	> 100	> 100	> 100	> 100	> 100	62.5	> 100	73.6	> 100	> 100	> 100
